This note sets out measurements from US12065436B2, “Cardiac sarcomere inhibitors” (Cytokinetics, Inc., priority 2018, dated 2024).

By IC50 is commonly meant the concentration that inhibits the measured activity by half.

The target in this assay is bovine cardiac myofibrils (full-length cardiac myosin ATPase in the native sarcomere) (Bos taurus (Bovine), UniProt Q9BE39). As to the kind of experiment: Skinned bovine cardiac myofibril ATPase assay (PK/LDH-coupled). Format: biochemical. The note with it: Ca2+ activating to 75% of maximal rate; for CDMF75 IC15: concentration giving 15% inhibition; for IC50: read-out: CDMF75 IC50. Summed up:
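Inhibition of steady-state ATPase read at 340 nm through a PK/LDH-coupled NADH system (0.5 mM NADH, 1.5 mM PEP). Detergent-skinned bovine cardiac myofibrils, 1 mg/mL, were tested at pH 6.8 in PIPES/MgCl2 with 50 μM ATP and calcium adjusted to give pCa50 or pCa75 activation.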

Chain of bovine cardiac myofibrils (full-length cardiac myosin ATPase in the native sarcomere) (Q9BE39 whole entry): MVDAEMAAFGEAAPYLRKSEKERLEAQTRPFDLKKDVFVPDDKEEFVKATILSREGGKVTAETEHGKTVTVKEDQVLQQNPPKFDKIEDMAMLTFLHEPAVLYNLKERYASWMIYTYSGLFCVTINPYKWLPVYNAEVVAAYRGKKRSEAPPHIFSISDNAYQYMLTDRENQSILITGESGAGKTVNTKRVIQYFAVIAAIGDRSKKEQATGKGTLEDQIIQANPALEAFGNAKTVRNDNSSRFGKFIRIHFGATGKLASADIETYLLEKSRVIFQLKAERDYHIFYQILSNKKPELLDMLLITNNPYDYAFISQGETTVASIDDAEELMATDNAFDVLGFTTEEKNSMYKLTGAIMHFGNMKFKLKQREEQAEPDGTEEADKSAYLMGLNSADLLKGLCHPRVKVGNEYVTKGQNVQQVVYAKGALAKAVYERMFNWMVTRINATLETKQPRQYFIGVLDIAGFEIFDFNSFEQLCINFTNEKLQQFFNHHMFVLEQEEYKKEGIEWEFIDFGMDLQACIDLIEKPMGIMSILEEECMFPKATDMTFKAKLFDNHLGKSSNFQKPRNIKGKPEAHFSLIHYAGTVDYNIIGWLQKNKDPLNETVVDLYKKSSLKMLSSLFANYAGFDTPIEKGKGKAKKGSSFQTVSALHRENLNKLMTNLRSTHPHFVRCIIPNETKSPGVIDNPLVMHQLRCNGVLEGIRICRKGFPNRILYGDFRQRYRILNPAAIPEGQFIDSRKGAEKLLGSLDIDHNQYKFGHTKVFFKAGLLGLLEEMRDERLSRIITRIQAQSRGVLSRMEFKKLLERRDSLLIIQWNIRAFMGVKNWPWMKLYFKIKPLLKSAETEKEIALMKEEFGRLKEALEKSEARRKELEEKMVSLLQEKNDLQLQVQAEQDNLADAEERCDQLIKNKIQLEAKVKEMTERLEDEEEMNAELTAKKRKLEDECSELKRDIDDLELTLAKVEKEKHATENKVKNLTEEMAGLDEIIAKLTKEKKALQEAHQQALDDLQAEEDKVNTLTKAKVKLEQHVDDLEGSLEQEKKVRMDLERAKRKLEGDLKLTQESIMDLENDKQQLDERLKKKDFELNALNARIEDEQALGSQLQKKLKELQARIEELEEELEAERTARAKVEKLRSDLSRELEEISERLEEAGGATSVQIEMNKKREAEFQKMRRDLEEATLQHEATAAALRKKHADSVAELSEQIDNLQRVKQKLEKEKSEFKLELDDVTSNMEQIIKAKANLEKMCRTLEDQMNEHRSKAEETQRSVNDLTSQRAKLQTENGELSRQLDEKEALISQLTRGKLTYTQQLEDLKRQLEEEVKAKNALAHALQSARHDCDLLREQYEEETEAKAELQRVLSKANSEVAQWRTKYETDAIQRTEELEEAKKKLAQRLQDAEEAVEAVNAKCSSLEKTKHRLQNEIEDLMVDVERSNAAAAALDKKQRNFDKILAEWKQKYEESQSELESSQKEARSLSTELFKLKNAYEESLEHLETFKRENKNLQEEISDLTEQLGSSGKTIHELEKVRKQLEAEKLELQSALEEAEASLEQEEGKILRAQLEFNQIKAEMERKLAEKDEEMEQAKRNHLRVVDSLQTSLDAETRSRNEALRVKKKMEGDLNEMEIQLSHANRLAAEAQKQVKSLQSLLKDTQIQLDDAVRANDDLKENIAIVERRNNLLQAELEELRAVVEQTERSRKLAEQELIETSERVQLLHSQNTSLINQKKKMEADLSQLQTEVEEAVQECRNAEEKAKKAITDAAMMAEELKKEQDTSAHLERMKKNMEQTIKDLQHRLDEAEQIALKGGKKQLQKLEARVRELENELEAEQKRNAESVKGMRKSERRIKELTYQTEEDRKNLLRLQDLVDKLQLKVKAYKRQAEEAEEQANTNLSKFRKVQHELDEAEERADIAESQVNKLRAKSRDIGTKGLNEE
Chain of bovine cardiac myofibrils (full-length cardiac myosin ATPase in the native sarcomere) (P85100 whole entry partner): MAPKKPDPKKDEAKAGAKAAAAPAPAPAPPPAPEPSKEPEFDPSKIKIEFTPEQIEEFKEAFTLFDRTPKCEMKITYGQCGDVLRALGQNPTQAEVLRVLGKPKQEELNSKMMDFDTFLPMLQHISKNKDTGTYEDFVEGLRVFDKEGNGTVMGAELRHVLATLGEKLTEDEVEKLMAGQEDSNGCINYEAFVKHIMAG
Chain of bovine cardiac myofibrils (full-length cardiac myosin ATPase in the native sarcomere) (Q3SZE5 whole entry partner): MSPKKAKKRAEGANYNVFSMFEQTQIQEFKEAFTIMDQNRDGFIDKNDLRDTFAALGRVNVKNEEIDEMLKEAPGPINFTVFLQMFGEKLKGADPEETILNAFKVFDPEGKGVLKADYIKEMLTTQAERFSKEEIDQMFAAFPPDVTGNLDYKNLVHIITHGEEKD

On to `Cn1cc(C(=O)N[C@@H]2CCc3cc(-c4noc(C5CCC5)n4)ccc32)ccc1=O` [Compound 645, (R)-N-(5-(5-cyclobutyl-1,2,4-oxadiazol-3-yl)-2,3-dihydro-1H-inden-1-yl)-1-methyl-6-oxo-1,6-dihydropyridine-3-carboxamide], for which the “CDMF75 IC15” value came out at 1.6 µM and the IC50 amounted to 7 µM.
Consider `CCc1nc(-c2ccc3c(c2)CC[C@H]3NC(=O)c2ccc(=O)n(CC)c2)no1` [Compound 641, (R)-1-ethyl-N-(5-(5-ethyl-1,2,4-oxadiazol-3-yl)-2,3-dihydro-1H-inden-1-yl)-6-oxo-1,6-dihydropyridine-3-carboxamide], for which the “CDMF75 IC15” value amounted to 1.4 µM and the IC50 is 5.7 µM.
For `CCc1nc(-c2ccc3c(c2)CC[C@H]3NC(=O)c2cccc(C)n2)no1` [Compound 594, (R)-N-(5-(5-ethyl-1,2,4-oxadiazol-3-yl)-2,3-dihydro-1H-inden-1-yl)-6-methylpicolinamide] the same measures were 1.4 µM and 5.8 µM.
Consider `CCc1nc(-c2ccc3c(c2)CC[C@H]3NC(=O)c2cnoc2C)no1` [Compound 564, (R)-N-(5-(5-ethyl-1,2,4-oxadiazol-3-yl)-2,3-dihydro-1H-inden-1-yl)-5-methylisoxazole-4-carboxamide], for which the “CDMF75 IC15” value came out at 0.2 µM and the IC50 was determined as 0.6 µM.
For `COCc1nc(-c2ccc3c(c2)OC[C@@H]3NC(=O)c2cc(C)nn2C)no1` [Compound 225, (R)-N-(6-(5-(methoxymethyl)-1,2,4-oxadiazol-3-yl)-2,3-dihydrobenzofuran-3-yl)-1,3-dimethyl-1H-pyrazole-5-carboxamide] the same measures were 39.2 µM and 39.2 µM.
Turning to `Cn1cc(C(=O)N[C@@H]2CCc3cc(-c4noc(C(F)F)n4)ccc32)ccc1=O` [Compound 644, (R)-N-(5-(5-(difluoromethyl)-1,2,4-oxadiazol-3-yl)-2,3-dihydro-1H-inden-1-yl)-1-methyl-6-oxo-1,6-dihydropyridine-3-carboxamide], the “CDMF75 IC15” value worked out at 1.5 µM and the half-maximal inhibitory concentration (IC50) turned out to be 5.9 µM.
Take `CCc1nc(-c2ccc3c(c2)CC[C@H]3NC(=O)c2cn(CCOC)nc2C)no1` [Compound 596, (R)-N-(5-(5-ethyl-1,2,4-oxadiazol-3-yl)-2,3-dihydro-1H-inden-1-yl)-1-(2-methoxyethyl)-3-methyl-1H-pyrazole-4-carboxamide]: the “CDMF75 IC15” value stood at 0.8 µM and the IC50 worked out at 2.5 µM.
In the case of `CCc1nc(-c2ccc3c(c2)CC[C@H]3NC(=O)c2ccn(C)n2)no1` [Compound 592, (R)-N-(5-(5-ethyl-1,2,4-oxadiazol-3-yl)-2,3-dihydro-1H-inden-1-yl)-1-methyl-1H-pyrazole-3-carboxamide], the “CDMF75 IC15” value worked out at 2.7 µM and the IC50 turned out to be 10.9 µM.
With `Cc1cc(C(=O)NC2CCc3cc(-c4cc(C)on4)ccc32)ccn1` (stereo not shown) [Compound 137, 2-methyl-N-(5-(5-methylisoxazol-3-yl)-2,3-dihydro-1H-inden-1-yl)isonicotinamide], the “CDMF75 IC15” value is 1.2 µM and the IC50 is 4.9 µM.
Take `Cc1cc(C(=O)N[C@@H]2CCc3cc(-c4noc(C(F)F)n4)ccc32)ncn1` [Compound 683, (R)-N-(5-(5-(difluoromethyl)-1,2,4-oxadiazol-3-yl)-2,3-dihydro-1H-inden-1-yl)-6-methylpyrimidine-4-carboxamide]: the “CDMF75 IC15” value amounted to 1.1 µM and the half-inhibitory concentration (IC50) came out at 4.6 µM.
With `CC(C)c1nc(-c2ccc3c(c2)CC[C@H]3NC(=O)c2nn[nH]n2)no1` [Compound 499, (R)-N-(5-(5-isopropyl-1,2,4-oxadiazol-3-yl)-2,3-dihydro-1H-inden-1-yl)-2H-tetrazole-5-carboxamide], the “CDMF75 IC15” value came to 2.4 µM and the IC50 was found to be 39.2 µM.
On to `CCc1nc(-c2ccc3c(c2)CC[C@H]3NC(=O)c2cnco2)no1` [Compound 584, (R)-N-(5-(5-ethyl-1,2,4-oxadiazol-3-yl)-2,3-dihydro-1H-inden-1-yl)oxazole-5-carboxamide], for which the “CDMF75 IC15” value came out at 0.3 µM and the half-inhibitory concentration (IC50) came to 1.2 µM.
On to `CCc1nc(-c2ccc3c(c2)CC[C@H]3NC(=O)c2cnc(CO)n2C)no1` [Compound 613, (R)-N-(5-(5-ethyl-1,2,4-oxadiazol-3-yl)-2,3-dihydro-1H-inden-1-yl)-2-(hydroxymethyl)-1-methyl-1H-imidazole-5-carboxamide], for which the “CDMF75 IC15” value turned out to be 0.4 µM and the IC50 was determined as 1.4 µM.
Turning to `Cc1c(C(=O)N[C@@H]2CCc3cc(-c4nc(C(F)F)no4)ccc32)cnn1C` [Compound 277, (R)-N-(5-(3-(difluoromethyl)-1,2,4-oxadiazol-5-yl)-2,3-dihydro-1H-inden-1-yl)-1,5-dimethyl-1H-pyrazole-4-carboxamide], the “CDMF75 IC15” value came out at 1.4 µM and the IC50 was 5.4 µM.
Consider `CC(=O)N[C@@H]1COc2cc(-c3noc(C4CC4)n3)ccc21` [Compound 457, (S)-N-(6-(5-cyclopropyl-1,2,4-oxadiazol-3-yl)-2,3-dihydrobenzofuran-3-yl)acetamide], for which the “CDMF75 IC15” value stood at 1.2 µM and the IC50 was found to be 5.3 µM.
As for `CCc1nc(-c2ccc3c(c2)CC[C@H]3NC(=O)c2ccn(C[C@@H](C)O)c(=O)c2)no1` [Compound 560, N-((R)-5-(5-ethyl-1,2,4-oxadiazol-3-yl)-2,3-dihydro-1H-inden-1-yl)-1-((R)-2-hydroxypropyl)-2-oxo-1,2-dihydropyridine-4-carboxamide], the “CDMF75 IC15” value amounted to 1.3 µM and the IC50 was 4.7 µM.
On to `CCc1nc(-c2ccc3c(c2)CC[C@H]3NC(=O)c2cn(C)nn2)no1` [Compound 616, (R)-N-(5-(5-ethyl-1,2,4-oxadiazol-3-yl)-2,3-dihydro-1H-inden-1-yl)-1-methyl-1H-1,2,3-triazole-4-carboxamide], for which the “CDMF75 IC15” value came to 4.5 µM and the IC50 turned out to be 22.9 µM.
As for `CCc1cc(-c2ccc3c(c2)CC[C@H]3NC(=O)c2ccnc(C)c2)no1` [Compound 404, (R)-N-(5-(5-ethylisoxazol-3-yl)-2,3-dihydro-1H-inden-1-yl)-2-methylisonicotinamide], the “CDMF75 IC15” value turned out to be 0.4 µM and the IC50 is 1.2 µM.
As for `[2H]C([2H])([2H])c1nc(-c2ccc3c(c2)CC[C@H]3NC(=O)c2c[nH]nc2C)no1` [Compound 401, (R)-3-methyl-N-(5-(5-(methyl-d3)-1,2,4-oxadiazol-3-yl)-2,3-dihydro-1H-inden-1-yl)-1H-pyrazole-4-carboxamide], the “CDMF75 IC15” value is 0.9 µM and the IC50 was found to be 3 µM.
Turning to `CCc1nc(-c2ccc3c(c2)CC[C@H]3NC(=O)c2cnn(CC(=O)O)c2)no1` [Compound 532, (R)-2-(4-((5-(5-ethyl-1,2,4-oxadiazol-3-yl)-2,3-dihydro-1H-inden-1-yl)carbamoyl)-1H-pyrazol-1-yl)acetic acid], the “CDMF75 IC15” value was 1.1 µM and the IC50 is 5.5 µM.
For the molecule `CCc1nc(-c2ccc3c(c2)OCCC3NC(=O)c2cnn(C)c2)no1` (stereo not shown) [Compound 534, N-(7-(5-ethyl-1,2,4-oxadiazol-3-yl)chroman-4-yl)-1-methyl-1H-pyrazole-4-carboxamide], the “CDMF75 IC15” value was 2.2 µM and the IC50 was 13.5 µM.
For `Cc1noc(-c2ccc3c(c2)CC[C@H]3NC(=O)c2cnn(C)c2C)n1` [Compound 264, (R)-1,5-dimethyl-N-(5-(3-methyl-1,2,4-oxadiazol-5-yl)-2,3-dihydro-1H-inden-1-yl)-1H-pyrazole-4-carboxamide] the same measures were 1.8 µM and 6.6 µM.
As to `CN(C)C(=O)N[C@@H]1CCc2cc(-c3noc(C(F)F)n3)ccc21` [Compound 299, (R)-3-(5-(5-(difluoromethyl)-1,2,4-oxadiazol-3-yl)-2,3-dihydro-1H-inden-1-yl)-1,1-dimethylurea], the “CDMF75 IC15” value came to 6.7 µM and the IC50 worked out at 30.9 µM.
`Cc1cncc(C(=O)NC2CCc3cc(-c4noc(C(F)F)n4)ccc32)n1` (stereo not shown) [Compound 23, N-(5-(5-(difluoromethyl)-1,2,4-oxadiazol-3-yl)-2,3-dihydro-1H-inden-1-yl)-6-methylpyrazine-2-carboxamide]: the “CDMF75 IC15” value worked out at 5.8 µM and the IC50 came out at 31.4 µM.
On to `CCOCCn1cc(C(=O)N[C@@H]2CCc3cc(-c4noc(CC)n4)ccc32)cn1` [Compound 573, (R)-1-(2-ethoxyethyl)-N-(5-(5-ethyl-1,2,4-oxadiazol-3-yl)-2,3-dihydro-1H-inden-1-yl)-1H-pyrazole-4-carboxamide], for which the “CDMF75 IC15” value is 0.9 µM and the IC50 amounted to 4.1 µM.
Take `COCCn1cc(C(=O)N[C@@H]2CCc3cc(-c4noc(C(F)F)n4)ccc32)cn1` [Compound 529, (R)-N-(5-(5-(difluoromethyl)-1,2,4-oxadiazol-3-yl)-2,3-dihydro-1H-inden-1-yl)-1-(2-methoxyethyl)-1H-pyrazole-4-carboxamide]: the “CDMF75 IC15” value is 1.8 µM and the IC50 is 6.8 µM.
`Cc1ncc(C(=O)NC2CCc3cc(-c4noc(C(F)F)n4)ccc32)n1C` (stereo not shown) [Compound 61, N-(5-(5-(difluoromethyl)-1,2,4-oxadiazol-3-yl)-2,3-dihydro-1H-inden-1-yl)-1,2-dimethyl-1H-imidazole-5-carboxamide]: the “CDMF75 IC15” value came out at 1.1 µM and the IC50 was determined as 3.5 µM.
Regarding `COCc1nc(-c2ccc3c(c2)CC[C@H]3NC(=O)OC)no1` [Compound 306, methyl (R)-(5-(5-(methoxymethyl)-1,2,4-oxadiazol-3-yl)-2,3-dihydro-1H-inden-1-yl)carbamate], the “CDMF75 IC15” value stood at 0.9 µM and the IC50 is 3.7 µM.
`O=C(N[C@@H]1CCc2cc(-c3noc(C(F)F)n3)ccc21)c1cccc(CO)c1F` [Compound 662, (R)-N-(5-(5-(difluoromethyl)-1,2,4-oxadiazol-3-yl)-2,3-dihydro-1H-inden-1-yl)-2-fluoro-3-(hydroxymethyl)benzamide]: the “CDMF75 IC15” value came to 1.6 µM and the IC50 was 7.2 µM.
